Measurements published in publication doi:10.1101/2024.07.10.602890, “H105A peptide eye drops promote photoreceptor survival in murine and human models of retinal degeneration” (bioRxiv, 2024).
Ends that are not written are not given here.

System: rd10 and rd10/Serpinf1−/− mice
Assay: Retinal histology (H&E), OS length and ONL thickness spider plots after peptide eye drops
Assay type: in vivo, mouse
Conditions: for outer nuclear layer (ONL) thickness vs vehicle-treated or untreated eyes / photoreceptor outer segment (OS) length vs vehicle-treated or untreated eyes / ONL thickness (spider plots): daily eye drops 1 mg/ml, P21; for outer nuclear layer (ONL) thickness vs vehicle-treated or untreated eyes / photoreceptor outer segment (OS) length vs vehicle-treated or untreated eyes: rd10 and rd10/Serpinf1−/− mice; for ONL thickness (spider plots): rd10 mice only
Method: Fig. 4: Effect of eyedrops of 17-mer and H105A peptides on photoreceptor morphology of rd10 and rd10/Serpinf1−/− mice (A and B) Histological Evaluation. Representative microphotographs of retina sections from rd10 (A) and rd10/Serpinf1−/− (B) mice treated with 17-mer, H105A, or R99A peptides at 1 mg/ml, or with vehicle (HBSS), compared to wild type C57Bl/6J mice. Sections were stained with hematoxylin and eosin. Spider Plot illustrate the thickness of the outer nuclear layer (ONL) in rd10 (C) and rd10/Serpinf1−/− (D) mice. Five retinas per group were analyzed and each data point represents the average ± SEM per location relative to the optic nerve (ON), analyzed using One-way ANOVA. Statistics for comparisons between H105A and vehicle is indicated by #p < 0.05, #p < 0.05, ##p < 0.01, ###p < 0.001). Statistics for comparisons between H105A and 17-mer is indicated by *p < 0.05. Scale bar = 50 μm.
Both eyes were oriented before enucleation to allow sectioning along the dorsal/ventral axis. Enucleated eyes from rd10 and rd10 × Serpinf1^−/− mice were incised in the cornea and fixed in 2.5% glutaraldehyde for 20 min and then in 10% neutral buffered formalin at 4°C for at least 48 h, followed by paraffin embedding, sectioning, and staining with either H&E or immunofluorescence procedures, as previously described ([28]). For fluorescence microscopy, antibodies, and 0.1 μg/ml DAPI were used to immunostain and nuclei counterstain the sections, respectively. Antibodies used in the study are in Table S3. Images were acquired using a ZEIS 700 confocal microscope. Fluorescence intensity was quantified using ImageJ as previously described ([14], [26]).
To generate spider plots, the ONL thickness was measured from images acquired with light microscopy of the retina sections stained with H&E or images of retina sections stained with DAPI with a dorsal-ventral orientation. The ONL thickness in the entire retina sections was measured at 5 different positions from both sides of the optic nerve (ON) using ImageJ, as described before ([28]). Alternatively, for DAPI stained images, a customed macro implemented in ImageJ was used to select only the ONL.
Figure S2. Effects of extending the timeline or administering eye drops of 17-mer[H105A] peptide every other day in rd10 mic e.
Eye drops of H105A peptide solution were administered to r d1 0 mice either daily (Fig. S2A) or every other day (Fi g. S 2D). A total of 5 µl of a solution containing H105A peptide at 1 mg/ml in HBSS were applied as eye drops. The vehicle HBSS was added as eye drops in the contralateral eyes. […]
ONL thickness in r d10 mice compared to vehicle was also observed (Fi g. S 2E), with an improvement in a- […]
efficacy of peptide H105A eye drops either daily or every other day in an extended timeline to stabilize photoreceptor morphology and light response function loss in r d10 mice, however, these were less efficacious than daily H105A peptide eye drops.
(A) Scheme showing a timeline of peptide administration via daily eye drops of H105A peptide to r d10 mice between P15 and P2 4. […]
(B) Representative microphotographs of retinal cross sections of r d1 0 treated as in Fig. S2A and stained with hematoxylin and eosin are shown. […]
(D) Scheme showing a timeline of peptide administration via eye drops of H105A peptide to rd10 mice starting at P15 every other day until P23. Assays were at P25.
(E) Representative microphotographs of retinal cross sections of r d1 0 treated as in Fig. S2D and stained […]
average ± SD per location relative to the ON per genotype by unpaired t-test. *p < 0.05, […]
(F) ERG of r d1 0 mice at P25 and treated as in Fig. S2D were performed in response to a STR. […]

| Sequence | outer nuclear layer (ONL) thickness vs vehicle-treated or untreated eyes | photoreceptor outer segment (OS) length vs vehicle-treated or untreated eyes | ONL thickness (spider plots) | ONL thickness (rd10 mice, daily eye drops 5 μl of 1 mg/ml P15 until P24, assayed at P25) | ONL thickness compared to vehicle (rd10 mice, eye drops every other day P15 until P23, assayed at P25) |
| --- | --- | --- | --- | --- | --- |
| QRTESIIHRALYYDLIS [17-mer] | thicker outer nuclear layer | longer OS | restored ONL thickness | – | – |
| QRTESIIARALYYDLIS [H105A] | thicker outer nuclear layer | longer OS | to almost wild-type levels | rescue in the ONL thickness | rescue |
